Like-named read-outs stand apart in the source and are kept apart here.
Legend:
[1] = tested on: HLA-A*02:01-expressing target cells (T2 cells); format: cell-based, human
[2] = tested on: HLA-A*02:06-expressing target cells (HEV0011 cells); format: cell-based, human
[3] = tested on: HLA-A*02:01-expressing target cells (T2 cells); format: cell-based, human; remark: listed apart in the source
[4] = tested on: HLA-A*02:06-expressing target cells (HEV0011 cells); format: cell-based, human; remark: listed apart in the source
[5] = tested on: HLA-A*24:02-expressing target cells (TISI cells); format: cell-based, human
[6] = tested on: HLA-A*24:02-expressing target cells (TISI cells); format: cell-based, human; remark: listed apart in the source
[7] = target: T1, SARS-CoV-2 ORF1ab peptide on HLA-A*02:01 (human); experiment: cytokine release
T1 peptide: NVLAWLYAAV

[8] = target: T2, SARS-CoV-2 ORF1ab peptide on HLA-A*02:01 (human); experiment: cytokine release
T2 peptide: TLMIERFVSL

[9] = cells induced from HLA-A*02:01-positive PBMCs, peptide-pulsed T2 cells vs T2 cells not pulsed
[10] = HLA-A*02:06-restricted CTL lines, peptide-pulsed HEV0011 cells
[11] = HLA-A*02:01-restricted CTL lines, peptide-pulsed T2 cells
[12] = cells induced from HLA-A*02:06-positive PBMCs, peptide-pulsed HEV0011 cells vs HEV0011 cells not pulsed
[13] = cells induced from HLA-A*24:02-positive PBMCs, peptide-pulsed TISI cells vs TISI cells not pulsed

With “FMIDVQQWGF (a peptide derived from ORF1ab polyprotein of SARS-CoV-2) [Peptide 15, SARS-CoV-2 ORF1ab-derived 10 mer peptide, position 6165]” the “Peptide-specific IFN-γ production (ELISPOT)” value [1, 9] was “observed”, the “IFN-γ production by CTL lines (ELISA)” value [2, 10] was “observed” and the “IFN-γ production by CTL lines (ELISA)” value [3, 11] was “observed”. For the same molecule, the “Peptide-specific IFN-γ production (ELISPOT)” value [4, 12] was “observed” and the “Peptide-specific IFN-γ production (ELISPOT)” value [5, 13] was “no peptide-specific IFN-γ production was observed”.

“MMILSDDAV (a peptide derived from ORF1ab polyprotein of SARS-CoV-2) [Peptide 8, SARS-CoV-2 ORF1ab-derived 9 mer peptide, position 5147]” was tested, and the “Peptide-specific IFN-γ production (ELISPOT)” value [1, 9] was “not observed”.

In the case of “FGMSRIGMEV (a peptide derived from N polyprotein of SARS-CoV-2) [Peptide 9, SARS-CoV-2 N protein-derived 10 mer peptide, position 315]”, the “Peptide-specific IFN-γ production (ELISPOT)” value [1, 9] is reported as “observed” and the “Peptide-specific IFN-γ production (ELISPOT)” value [5, 13] is reported as “no peptide-specific IFN-γ production was observed”.

With “YMPASWVMRI (a peptide derived from ORF1ab polyprotein of SARS-CoV-2) [Peptide 4, SARS-CoV-2 ORF1ab-derived 10 mer peptide, position 3654]” the “Peptide-specific IFN-γ production (ELISPOT)” value [1, 9] was “observed”, the “IFN-γ production by CTL lines (ELISA)” value [2, 10] was “observed” and the “IFN-γ production by CTL lines (ELISA)” value [3, 11] was “observed”. For the same molecule, the “Peptide-specific IFN-γ production (ELISPOT)” value [4, 12] was “observed” and the “Peptide-specific IFN-γ production (ELISPOT)” value [5, 13] was “no peptide-specific IFN-γ production was observed”.

For FTYASALWEI [Peptide 7], the “Peptide-specific IFN-γ production (ELISPOT)” value [1] was “observed”, the “IFN-γ production by CTL lines (ELISA)” value [2] was “observed” and the “IFN-γ production by CTL lines (ELISA)” value [3] was “observed”. For the same molecule, the “Peptide-specific IFN-γ production (ELISPOT)” value [4] was “observed” and the “Peptide-specific IFN-γ production (ELISPOT)” value [5] was “no peptide-specific IFN-γ production was observed”.

With “TLMIERFVSL (a peptide derived from ORF1ab polyprotein of SARS-CoV-2) [Peptide 10, SARS-CoV-2 ORF1ab-derived 10 mer peptide, position 5245]” the “Peptide-specific IFN-γ production (ELISPOT)” value [1, 9] was “observed”, the “IFN-γ production by CTL lines (ELISA)” value [2, 10] was “observed” and the “IFN-γ production by CTL lines (ELISA)” value [3, 11] was “observed”. The “Peptide-specific IFN-γ production (ELISPOT)” value [4, 12] was “observed” and the “Peptide-specific IFN-γ production (ELISPOT)” value [5, 13] was “no peptide-specific IFN-γ production was observed”.

With “TLEPEYENSV [Peptide 13, SARS-CoV-2 ORF1ab-derived 10 mer peptide, position 5740]” the “Peptide-specific IFN-γ production (ELISPOT)” value [1, 9] was “observed” and the “Peptide-specific IFN-γ production (ELISPOT)” value [5, 13] was “no peptide-specific IFN-γ production was observed”.

For “MMGFKMNYQV (a peptide derived from ORF1ab polyprotein of SARS-CoV-2) [Peptide 5, SARS-CoV-2 ORF1ab-derived 10 mer peptide, position 5982]”, the “Peptide-specific IFN-γ production (ELISPOT)” value [1, 9] was “observed” and the “Peptide-specific IFN-γ production (ELISPOT)” value [5, 13] was “no peptide-specific IFN-γ production was observed”.

“SLFDMSKFPL (a peptide derived from ORF1ab polyprotein of SARS-CoV-2) [Peptide 1, SARS-CoV-2 ORF1ab-derived 10 mer peptide, position 7041]” was tested, and the “Peptide-specific IFN-γ production (ELISPOT)” value [1, 9] was “observed” and the “Peptide-specific IFN-γ production (ELISPOT)” value [5, 13] was “no peptide-specific IFN-γ production was observed”.

“NVLAWLYAAV (a peptide derived from ORF1ab polyprotein of SARS-CoV-2) [Peptide 12, SARS-CoV-2 ORF1ab-derived 10 mer peptide, position 3466]” was tested, and the “Peptide-specific IFN-γ production (ELISPOT)” value [1, 9] was “observed”, the “IFN-γ production by CTL lines (ELISA)” value [2, 10] was “observed” and the “IFN-γ production by CTL lines (ELISA)” value [3, 11] was “observed”. For the same molecule, the “Peptide-specific IFN-γ production (ELISPOT)” value [4, 12] was “observed” and the “Peptide-specific IFN-γ production (ELISPOT)” value [5, 13] was “no peptide-specific IFN-γ production was observed”.

With LMYKGLPWNV [Peptide 2] the “Peptide-specific IFN-γ production (ELISPOT)” value [1] was “observed”, the “IFN-γ production by CTL lines (ELISA)” value [3] was “observed” and the “Peptide-specific IFN-γ production (ELISPOT)” value [4] was “not observed”. For the same molecule, the “Peptide-specific IFN-γ production (ELISPOT)” value [5] was “no peptide-specific IFN-γ production was observed”.

In the case of “YSFLPGVYSV (a peptide derived from ORF1ab polyprotein of SARS-CoV-2) [Peptide 14, SARS-CoV-2 ORF1ab-derived 10 mer peptide, position 3098]”, the “Peptide-specific IFN-γ production (ELISPOT)” value [1, 9] is reported as “observed” and the “Peptide-specific IFN-γ production (ELISPOT)” value [5, 13] is reported as “no peptide-specific IFN-γ production was observed”.

In the case of “YVYNPFMIDV (a peptide derived from ORF1ab polyprotein of SARS-CoV-2) [Peptide 11, SARS-CoV-2 ORF1ab-derived 10 mer peptide, position 6160]”, the “Peptide-specific IFN-γ production (ELISPOT)” value [1, 9] is reported as “observed”, the “IFN-γ production by CTL lines (ELISA)” value ([6]; HLA-A*24:02-restricted CTL lines, peptide-pulsed TISI cells) is reported as “observed” and the “IFN-γ production by CTL lines (ELISA)” value [2, 10] is reported as “observed”. For the same molecule, the “IFN-γ production by CTL lines (ELISA)” value [3, 11] was “observed”, the “Peptide-specific IFN-γ production (ELISPOT)” value [4, 12] was “observed” and the “Peptide-specific IFN-γ production (ELISPOT)” value [5, 13] was “observed”.

FVLWAHGFEL [Peptide 3] was tested, and the “Detection of tetramer-positive CD8-positive T cells recognizing the peptide” value (CD8-positive T cells) was “detected”, the “Peptide-specific IFN-γ production (ELISPOT)” value [1] was “observed” and the “IFN-γ production by CTL lines (ELISA)” value [6] was “observed”. For the same molecule, the “IFN-γ production by CTL lines (ELISA)” value [2] was “observed”, the “IFN-γ production by CTL lines (ELISA)” value [3] was “observed” and the “Peptide-specific IFN-γ production (ELISPOT)” value [4] was “observed”. The “Peptide-specific IFN-γ production (ELISPOT)” value [5] was “observed”.

B1: Peptide 12-responsive TCR-2 (TCR)
alpha TRAV24 TRAJ29 CDR3: CAFLSGNTPLVF
beta TRBV27 TRBJ1-6 CDR3: CASSPAAYSPLHF
B1: recognises [7].

B2: Peptide 10-responsive TCR (TCR)
alpha TRAV8-6 TRAJ36 CDR3: CAITGANNLFF
beta TRBV20-1 TRBJ1-5 CDR3: CSAEDRGSNSNQPQHF
B2: recognises [8].

B3: Peptide 12-responsive TCR-1 (TCR)
alpha TRAV1-2 TRAJ20 CDR3: CAVRDPRNDYKLSF
beta TRBV27 TRBJ1-1 CDR3: CATQVNTEAFF
B3: recognises [7].

From US20240067679A1, “SARS-COV-2 PROTEIN-DERIVED PEPTIDE AND VACCINE CONTAINING SAME” (Onco Therapy Science, Inc., priority 2021, published 2024)
